Measurements from article PMC6271529, “Studies on the Anticonvulsant Activity and Influence on GABA-ergic Neurotransmission of 1,2,4-Triazole-3-thione-Based Compounds” (Molecules, 2014).
“Also recorded” adds a separate entry of the source. Like-named read-outs stand apart in the source and are kept apart here.

Columns and labels:
[1] = test system: GABAA receptors; experiment: Radioligand binding assay, [3H]muscimol, rat cerebral cortex; conditions: compound 1 × 10^−6 M, [3H]muscimol, rat cerebral cortex;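 also: low percentages indicate weak binding of the compound to the receptor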
Experimental: Binding experiments were conducted in 96-well microplates in a total volume of 200 μL of appropriate buffer. The reaction mixture included 50 μL solution of test compound, 50 μL of radioligand, and […] the tissue suspension. Rat cerebral cortex was used for each receptor. […] Radioligand binding data were analyzed using iterative curve fitting routines (GraphPAD/Prism, Version 3.0, San Diego, CA, USA). Ki values were calculated from the Cheng and Prusoff equation [36].

[2] = test system: benzodiazepine (BDZ)-binding sites; experiment: Radioligand binding assay, [3H]flunitrazepam, rat cerebral cortex; conditions: compound 1 × 10^−6 M;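 also: low percentages indicate weak binding of the compound to the site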
Experimental: Binding experiments were conducted in 96-well microplates in a total volume of 200 μL of appropriate buffer. The reaction mixture included 50 μL solution of test compound, 50 μL of radioligand, and […] the tissue suspension. Rat cerebral cortex was used for each receptor. The radioactivity was measured in MicroBeta TriLux 1450-liquid scintillation counter (PerkinElmer, Waltham, MA, USA). Radioligand binding data were analyzed using iterative curve fitting routines (GraphPAD/Prism, Version 3.0, San Diego, CA, USA). Ki values were calculated from the Cheng and Prusoff equation [36].

[3] = test system: maximal electroshock-induced seizures; experiment: Maximal electroshock-induced seizure (MES) test in mice; type: in vivo, mouse; conditions: for p/t, number of animals protected against MES-induced seizures / number tested / responders at 300 mg/kg: 300 mg/kg i.p.; for responders at 300 mg/kg / ED50: Mus musculus, ip; for responders at 300 mg/kg: read-out: percent of animals protected against MES-induced seizures; for ED50: read-out: ED50 ± S.E. (MES test); for PI (TD50/ED50): protective index; for onset of action: significant protection as early as 15 min after parenteral administration
Experimental: Additionally, all efforts were made to minimize animal suffering and to use only the number of animals necessary to produce reliable scientific data.
In the initial stage of the study, groups of eight mice were supplied with the compounds (administered intraperitoneally) in a dose of 300 mg/kg and then exposed to electrical impulse at fixed intervals (15, 30, 60, 120 min).
Each mouse was used only once.
Fresh drug solutions were prepared on each day of experimentation and administered at 15, 30, 60 and 120 min. before the initiation of maximal electroconvulsions. Electroconvulsions were produced by a current (0.2 s stimulus duration; 500 V, 50 Hz, fixed current intensity of 25 mA) delivered via ear-clip electrodes by a Rodent Shocker generator (constant-current stimulator Type 221, Hugo Sachs Elektronik, Freiburg, Germany). The criterion for the occurrence of seizure activity was the tonic hind limb extension. The animals were administered with a constant dose of 300 mg/kg of each of the examined compounds and were subjected to MES-induced seizures. […] The animals were administered with different doses of the tested compounds so as to obtain a variable percentage of protection against maximal electroconvulsions, allowing the construction of dose-response relationship lines for each examined compound administered i.p. at various pretreatment times, according to Litchfield and Wilcoxon. Each ED50 value represents the dose of the studied compounds that is required to protect 50% of the animals tested against MES-induced seizures.

[4] = pretreatment time 120 min, mice
[5] = 0.25 h, pretreatment time 15 min, mice
[6] = 0.5 h, pretreatment time 30 min, mice
[7] = 1 h, pretreatment time 60 min, mice
[8] = 2 h, pretreatment time 120 min, mice
[9] = chimney TD50 / MES ED50, pretreatment time 15 min
[10] = chimney TD50 / MES ED50, pretreatment time 30 min
[11] = chimney TD50 / MES ED50, pretreatment time 60 min
[12] = chimney TD50 / MES ED50, pretreatment time 120 min

SMILES: Fc1ccccc1-n1c(-c2cccc(Cl)c2)n[nH]c1=S [Compound 1a, 5-(3-Chlorophenyl)-4-(2-fluorophenyl)-2,4-dihydro-3H-1,2,4-triazole-3-thione]
- melting point: 170 to 171 °C
- Percent of Specific Binding, GABAA [1]: 8%
- Percent of Specific Binding, BDZ [2]: 14%
- p/t, number of animals protected against MES-induced seizures / number tested ([3]; pretreatment time 15 min, mice): 0/8
- p/t, number of animals protected against MES-induced seizures / number tested ([3]; pretreatment time 30 min, mice): 0/8
- p/t, number of animals protected against MES-induced seizures / number tested ([3]; pretreatment time 60 min, mice): 1/8
- p/t, number of animals protected against MES-induced seizures / number tested [3, 4]: 1/8
- responders at 300 mg/kg [3, 5]: 0%
- responders at 300 mg/kg [3, 6]: 0%
- responders at 300 mg/kg [3, 7]: 12.5%
- responders at 300 mg/kg [3, 8]: 12.5%

SMILES: S=c1[nH]nc(-c2cccc(Cl)c2)n1-c1ccccc1Br [Compound 5a, 4-(2-Bromophenyl)-5-(3-chlorophenyl)-2,4-dihydro-3H-1,2,4-triazole-3-thione]
- Percent of Specific Binding, GABAA [1]: 2%
- Percent of Specific Binding, BDZ [2]: 12%
- p/t, number of animals protected against MES-induced seizures / number tested ([3]; pretreatment time 15 min, mice): 0/8
- p/t, number of animals protected against MES-induced seizures / number tested ([3]; pretreatment time 30 min, mice): 0/8
- p/t, number of animals protected against MES-induced seizures / number tested ([3]; pretreatment time 60 min, mice): 1/8
- p/t, number of animals protected against MES-induced seizures / number tested [3, 4]: 1/8
- responders at 300 mg/kg [3, 5]: 0%
- responders at 300 mg/kg [3, 6]: 0%
- responders at 300 mg/kg [3, 7]: 12.5%
- responders at 300 mg/kg [3, 8]: 12.5%

SMILES: S=c1[nH]nc(-c2ccc(Cl)cc2)n1-c1ccc(Br)cc1 [Compound 16a, 4-(4-Bromophenyl)-5-(4-chlorophenyl)-2,4-dihydro-3H-1,2,4-triazole-3-thione]
- Percent of Specific Binding, GABAA [1]: 17%
- Percent of Specific Binding, BDZ [2]: 24%
- p/t, number of animals protected against MES-induced seizures / number tested ([3]; pretreatment time 15 min, mice): 5/8
- p/t, number of animals protected against MES-induced seizures / number tested ([3]; pretreatment time 30 min, mice): 7/8
- p/t, number of animals protected against MES-induced seizures / number tested ([3]; pretreatment time 60 min, mice): 8/8
- p/t, number of animals protected against MES-induced seizures / number tested [3, 4]: 8/8
- responders at 300 mg/kg [3, 5]: 62.5%
- responders at 300 mg/kg [3, 6]: 87.5%
- responders at 300 mg/kg [3, 7]: 100%
- responders at 300 mg/kg [3, 8]: 100%
- ED50 ([3]; pretreatment time 15 min, mice): 272 ± 21.4 mg/kg
- ED50 ([3]; pretreatment time 30 min, mice): 182 ± 44.3 mg/kg
- ED50 ([3]; pretreatment time 60 min, mice): 153 ± 23.5 mg/kg
- ED50 [3, 4]: 141 ± 25.1 mg/kg
- time to peak of the anticonvulsant action ([3]; after i.p. administration, MES, mice): 120 min
- PI (TD50/ED50) [3, 9]: 1.6
- PI (TD50/ED50) [3, 10]: 2.6
- PI (TD50/ED50) [3, 11]: 3.0
- PI (TD50/ED50) [3, 12]: 2.9
- onset of action ([3]; MES, mice): quick onset of action

SMILES: Cc1ccc(-n2c(-c3cccc(Cl)c3)nn(CN3CCOCC3)c2=S)cc1 [Compound 22a, 5-(3-Chlorophenyl)-4-(4-methylphenyl)-2-(morpholin-4-ylmethyl)-2,4-dihydro-3H-1,2,4-triazole-3-thione]
- Percent of Specific Binding, GABAA [1]: 6%
- Percent of Specific Binding, BDZ [2]: 12%
- p/t, number of animals protected against MES-induced seizures / number tested ([3]; pretreatment time 15 min, mice): 4/8
- p/t, number of animals protected against MES-induced seizures / number tested ([3]; pretreatment time 30 min, mice): 5/8
- p/t, number of animals protected against MES-induced seizures / number tested ([3]; pretreatment time 60 min, mice): 3/8
- p/t, number of animals protected against MES-induced seizures / number tested [3, 4]: 2/8
- anticonvulsant activity (in words) ([3]; MES test, mice): slightly weaker than that of valproate; also recorded: weak anticonvulsant activity
- responders at 300 mg/kg [3, 5]: 50%
- responders at 300 mg/kg [3, 6]: 62.5%
- responders at 300 mg/kg [3, 7]: 37.5%
- responders at 300 mg/kg [3, 8]: 25%
- ED50 ([3]; pretreatment time 15 min, mice): 224 ± 20.9 mg/kg
- ED50 ([3]; pretreatment time 30 min, mice): 228 ± 14.7 mg/kg
- ED50 ([3]; pretreatment time 60 min, mice): 274 ± 10.9 mg/kg
- ED50 [3, 4]: 448 ± 21.4 mg/kg
- PI (TD50/ED50) [3, 9]: 1.5
- PI (TD50/ED50) [3, 10]: 1.4
- PI (TD50/ED50) [3, 11]: 1.6
- PI (TD50/ED50) [3, 12]: 1.0
- onset of action ([3]; MES, mice): quick onset of action

SMILES: Cc1ccc(-n2c(-c3cccc(Cl)c3)nn(CN3CCN(c4ccccc4)CC3)c2=S)cc1 [Compound 23a, 5-(3-Chlorophenyl)-4-(4-methylphenyl)-2-[(4-phenylpiperazin-1-yl)methyl]-2,4-dihydro-3H-1,2,4-triazole-3-thione]
- Percent of Specific Binding, GABAA [1]: 23%
- Percent of Specific Binding, BDZ [2]: 7%
- p/t, number of animals protected against MES-induced seizures / number tested ([3]; pretreatment time 15 min, mice): 0/8
- p/t, number of animals protected against MES-induced seizures / number tested ([3]; pretreatment time 30 min, mice): 0/8
- p/t, number of animals protected against MES-induced seizures / number tested ([3]; pretreatment time 60 min, mice): 0/8
- p/t, number of animals protected against MES-induced seizures / number tested [3, 4]: 0/8
- responders at 300 mg/kg [3, 5]: 0%
- responders at 300 mg/kg [3, 6]: 0%
- responders at 300 mg/kg [3, 7]: 0%
- responders at 300 mg/kg [3, 8]: 0%

SMILES: Cc1ccc(-n2c(-c3cccc(Cl)c3)nn(CN3CCN(c4ccc(F)cc4)CC3)c2=S)cc1 [Compound 24a, 5-(3-Chlorophenyl)-2-{[4-(4-fluorophenyl)piperazin-1-yl]methyl}-4-(4-methylphenyl)-2,4-dihydro-3H-1,2,4-triazole-3-thione]
- Percent of Specific Binding, GABAA [1]: 21%
- Percent of Specific Binding, BDZ [2]: 13%
- p/t, number of animals protected against MES-induced seizures / number tested ([3]; pretreatment time 15 min, mice): 0/8
- p/t, number of animals protected against MES-induced seizures / number tested ([3]; pretreatment time 30 min, mice): 0/8
- p/t, number of animals protected against MES-induced seizures / number tested ([3]; pretreatment time 60 min, mice): 0/8
- p/t, number of animals protected against MES-induced seizures / number tested [3, 4]: 0/8
- responders at 300 mg/kg [3, 5]: 0%
- responders at 300 mg/kg [3, 6]: 0%
- responders at 300 mg/kg [3, 7]: 0%
- responders at 300 mg/kg [3, 8]: 0%

SMILES: CN1C(=O)CN=C(c2ccccc2)c2cc(Cl)ccc21 [Diazepam, reference compound]
- Percent of Specific Binding, BDZ [2]: 83%

SMILES: Cc1ccc(-c2nc3ccc(C)cn3c2CC(=O)N(C)C)cc1 [Zolpidem, reference compound]
- Percent of Specific Binding, BDZ [2]: 73%
